{"source": "patent US20170312253A1", "about": "(The Third Affiliated Hospital, Third Military Medical …, priority 2014, published 2017)", "key": {"[1]": {"system": "cerebral ischemia-reperfusion injury", "conditions": "cited from earlier work"}, "N2a/Swe.Δ9 cells": {"system": "N2a/Swe.Δ9 cells", "conditions": "cited from earlier work"}, "Aβ fibers (Aβ 42)": {"target": "Aβ fibers (Aβ 42) (Homo sapiens, UniProt P05067)", "sequence (P05067 672-713 limits assumed)": "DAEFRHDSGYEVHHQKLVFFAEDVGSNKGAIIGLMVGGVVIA", "experiment": "Thioflavin T fluorescence test, disaggregation of Aβ fibers", "format": "biochemical", "conditions": "preformed Aβ fibers, Edaravone 0-100 μM, three days"}, "[2]": {"system": "neural inflammatory reactions", "experiment": "Neural inflammatory reaction in brain (ELISA of IL-6, IL-1β, INF-γ, TNF-β)", "format": "in vivo", "conditions": "AD mice", "description": "(§1) APPswe/PS1DE9 (AD) transgenic mice were purchased from Jackson Laboratory, USA (No. 005864), raised in the SPF grade animal house of The Third Affiliated Hospital of The Third Military Medical University. All the processes and correlated experiments applied to the mice were approved and filed with the Animal Ethics Committee of the Third Military Medical University. […] Alternatively, the daily dose for the prophylactic group may be 6.4 mg/kg, and the daily dose for the treatment group may be 12.8 mg/kg. Administration from 3-month old to 9-month old is the prophylactic test, and administration from 9-month old to 12-month old is the therapeutic test After reaching a stated time, the mice in each group received behavioral tests according to the method in the follows. Three mice in each group were taken for Golgi staining. The remaining mice were overly anaesthetized to receive brain anatomy. One side of the cerebral hemisphere was frozen and then for a biochemical analysis, and the other side of the cerebral hemisphere was fixed with 4% paraform for a histological analysis.\n(§2) After homogenating the frozen brain tissues, extraction was conducted with TBS, SDS and formic acid successively. The TBS, SDS and formic acid extracts represent soluble Aβ, loosen senile plaques and compact senile plaques, respectively. […]"}, "LRP": {"system": "LRP", "experiment": "Western blot of Aβ metabolizing enzymes in brain: LRP", "format": "in vivo", "conditions": "AD mice brain", "description": "(§3) APPswe/PS1DE9 (AD) transgenic mice were purchased from Jackson Laboratory, USA (No. 005864), raised in the SPF grade animal house of The Third Affiliated Hospital of The Third Military Medical University. All the processes and correlated experiments applied to the mice were approved and filed with the Animal Ethics Committee of the Third Military Medical University. […] Alternatively, the daily dose for the prophylactic group may be 6.4 mg/kg, and the daily dose for the treatment group may be 12.8 mg/kg. […]\n(§4) The enzymes related with Aβ formation and degradation their molecule levels, the levels of hyperphosphprylated Tau proteins, and the levels of synaptic plasticity correlated proteins were all detected with Western blot. […] The blotting was detected with the following antibodies: APP C terminal antibody (171610, Millipore), BACE1 antibody (Millipore), Aβ antibody (6E10, Abcam), Nepriiysin antibody (Millipore), RAGE antibody (Millipore), LRP antibody (5A6, Calbiochem), IDE antibody (epitomics), phosphorylated Tau protein antibody, including pS396 (Signalway), pT231 (Signalway), pS199 (epitomics), pS262 (Abcam), SNAP25 antibody (Millipore), Synaptophysin antibody (Millipore), Synapsin I antibody (Millipore), VAMP1 antibody (Millipore), PSD95 antibody (Millipore), F-actin antibody (Actin) (Sigma-Aldrich). […]"}, "[3]": {"system": "oxidation level in the brain", "experiment": "Oxidation level in brain tissues, DNPH Western blotting", "format": "in vivo", "conditions": "AD mice", "description": "as §1, with “The remaining mice were overly anaesthetized to receive brain anatomy. One side of the cerebral hemisphere was frozen and then for a biochemical analysis, and the other side of the cerebral hemisphere was fixed with 4% paraform for a histological analysis.” left out\nThe carbonyl level of the proteins in the tissue reflects the oxidation level in the tissue. DNPH is reacted with the carbonyl of the proteins to form a protein-DNP hydrazone complex, and the level of the complex can he detected with DNPH antibodies so as to assess the oxidation level in the tissue, A 5 μl sample of fresh brain tissues was co-incubated with 12% SDS and a 10 μl DNPH working solution at room temperature for 20 min. […] Samples containing 15 μg total proteins were loaded and detected with Western blot. […]"}, "Aβ, CTFβ": {"system": "Aβ, CTFβ", "experiment": "Western blot of Aβ and CTFβ in brain", "format": "in vivo", "conditions": "AD mice", "description": "as §3, §4"}, "Aβ42": {"target": "Aβ42 (Homo sapiens, UniProt P05067)", "sequence (P05067 672-713 limits assumed)": "as above", "experiment": "Western blot determination of aggregation-inhibitive effect on Aβ", "format": "biochemical", "conditions": "read-out: inhibition of Aβ from forming aggregates (Western blot)"}, "SH-SY5Y cells": {"system": "SH-SY5Y cells", "experiment": "Neurite growth detection, Aβ-treated SH-SY5Y cells", "format": "cell-based", "conditions": "1 μM Aβ, 24 h", "description": "The SH-SY5Y cell line was purchased from the Peking Union Hospital Cell Bank, cultured in a humidified incubator under 5% CO2 and 37° C., A MTT cell viability assay was performed according to the instructions in the kit (Sigma). […] The optical density values were determined at a wavelength of 563 nm (Synergy H4, Bio Tek). The neurite growth test was performed according to the method described in the prior documents (see, for example, Wang, Y. J., et al., Effects of proNGF on neuronal viability, neurite growth and amyloid-beta metabolism. Neurotox Res, 2010, 17(3): p. 257-67)."}, "[4]": {"system": "synapse associated proteins", "experiment": "Western blot of synapse associated proteins", "format": "in vivo", "conditions": "AD mice vs control group", "description": "as §3, §4"}, "Tau protein": {"system": "Tau protein", "experiment": "Western blot of phosphorylated Tau protein", "format": "in vivo", "conditions": "AD mice", "description": "as §3, §4"}, "RAGE": {"system": "RAGE", "experiment": "Western blot of Aβ metabolizing enzymes in brain: RAGE", "format": "in vivo", "conditions": "AD mice brain", "description": "as §3, §4"}, "IDE": {"system": "IDE", "experiment": "Western blot of Aβ metabolizing enzymes in brain: IDE", "format": "in vivo", "conditions": "AD mice brain", "description": "as §3, §4"}, "α-secretase": {"system": "α-secretase", "experiment": "α-secretase activity in brain tissues (kit)", "format": "in vivo", "conditions": "AD mice brain", "description": "as §1, §2"}}}
{"smiles": "CC1=NN(c2ccccc2)C(=O)C1", "note": "[Edaravone, 3-methyl-1-phenyl-2-pyrazolin-5-one]", "values": [{"measurement": "cerebral ischemia-reperfusion injury area", "setting": "[1]; previous studies", "value": "reduce cerebral ischemia-reperfusion injury area"}, {"measurement": "gene expression of the Fas/FasL signaling pathway", "setting": "[1]; transient focal ischemia in rats", "value": "suppress the gene expression of the Fas/FasL signaling pathway"}, {"measurement": "mitochondrion dependant apoptosis pathway", "setting": "N2a/Swe.Δ9 cells", "value": "inhibit the mitochondrion dependant apoptosis pathway"}, {"measurement": "disaggregation of formed Aβ fibers (thioflavin T)", "setting": "Aβ fibers (Aβ 42)", "value": "disaggregate the formed Aβ fibers or larger aggregates effectively"}, {"measurement": "neural inflammatory reaction level in the brain", "setting": "[2]; p.o.", "value": "significantly reduced, too"}, {"measurement": "neural inflammatory reaction in the brain", "setting": "[2]; prophylactic and therapeutic test", "value": "all reduced significantly"}, {"measurement": "influence on LRP", "setting": "LRP", "value": "no influence"}, {"measurement": "oxidation level in the brain", "setting": "[3]", "value": "significantly reduces the oxidation level"}, {"measurement": "formation of Aβ in the brain (Western blot)", "setting": "Aβ, CTFβ", "value": "reduce the formation of Aβ in the brain"}, {"measurement": "formation of CTFβ (Western blot)", "setting": "Aβ, CTFβ", "value": "decrease the formation of CTFβ"}, {"measurement": "inhibition at 3 µM", "setting": "Aβ42", "value": 50, "unit": "%"}, {"measurement": "all-trans-Retinoic acid induced neurite length", "setting": "SH-SY5Y cells", "value": "neurite length also increases"}, {"measurement": "expressions of the synapse associated proteins", "setting": "[4]", "value": "much higher than in the control group"}, {"measurement": "phosphorylation level of Tau protein", "setting": "Tau protein", "value": "reduce the phosphorylation level of Tau protein at multiple pathological sites"}, {"measurement": "influence on RAGE", "setting": "RAGE", "value": "no influence"}, {"measurement": "influence on IDE", "setting": "IDE", "value": "no influence"}, {"measurement": "activity of α-secretase", "setting": "α-secretase", "value": "increase of the activity of α-secretase"}]}
